≈ marks a conversion by molar mass, not a printed value. Like-named read-outs stand apart in the source and are kept apart here.
Tests used:
[1] = tested on: S. aureus, MRSA 1A-218, 1A-318, 1B-374, 1B-315, 1B-185, 1B387 and MSSA ATCC-6538, ATCC-29213; assay: MIC by standard microdilution method against S. aureus (MRSA and MSSA strains); assay type: cell-based; conditions: Staphylococcus aureus; against all 8 strains of S. aureus tested except where indicated; microdilution, Ca-MHB, 35° C., 24 hr; read-out: MIC
Protocol: A standard microdilution method (NCCLS, 2000; Document M7-A5) was used to determine the minimum inhibitory concentrations (MICs) against S. aureus, methicillin-resistant strains (MRSA); 1A-218, 1A-318, 1B-374, 1B-315, 1B-185, 1B387 (Simor et al. 1999 Can Commun Dis Rep; 25:105-108) and methicillin-sensitive strains (MSSA); ATCC-6538 and ATCC-29213. The MICs of some compounds were also determined against other Gram-positive bacteria: Enterococcus faecium (ATCC 51559), Enterococcus faecalis (ATCC-51299, ATCC-29212) and Staphylococcus epidermidis (ATCC-35983).
Mueller-Hinton broth (MHB) is recommended as the medium of choice for susceptibility testing of commonly isolated, rapidly growing aerobic organisms such as the Gram-positive bacteria included in this study. A “cation-adjusted Mueller-Hinton broth” (Ca-MHB) was prepared by first preparing standard MHB from a dehydrated base as recommended by the manufacturer.
Single colonies from fresh agar plates of the different bacterial cultures were sub-cultured overnight in 3 ml of Tryptic soy broth (TSB) at 37° C. with shaking at 250 RPM. After 18-20 hours of incubation, the absorbance at λ=600 nm (OD600) were determined for each culture and adjusted to a final OD600=0.1 (4.2×10^7 cfu/ml). Bacterial suspensions were then diluted 1:200 in sterile Ca-MHB for the in vitro susceptibility test, with each well of the microtitre plate containing approximately 2×10^5 cfu/ml.
Stock solutions of the different test compounds were prepared at concentrations of 1,280 μg/ml, 640 μg/ml, or 320 μg/ml in 50% DMSO (dimethyl sulfoxide). Serial two-fold dilutions were then prepared in 50% DMSO (the working concentrations were 1:10 of the stock concentrations in 100 μl culture suspensions). The filled microtitre plates were sealed in plastic bags and incubated at 35° C. for 24 hr in an ambient air incubator with shaking at 250 RPM. MIC values were determined as the lowest concentration where complete inhibition of the visible bacterial growth was observed by the unaided eye and confirmed by the measurement of the optical density (OD600).

[2] = tested on: Candida albicans (ATCC 24433); assay: In vitro anti-fungal activity, microdilution against Candida albicans; assay type: cell-based; conditions: for inhibition at 25 µg/mL: ATCC24433, C. albicans ATCC 24433, compound 25 μg/ml
Protocol: A microdilution method was used to determine the anti-fungal activity of different test compounds against Candida albicans (ATCC 24433) at 25 μg/ml. RPMI-1640 broth is recommended as the medium of choice for susceptibility testing of C. albicans (NCCLS, 2002; Document M27-A2) and was used in this study. The broth was buffered to pH 7.0 and then sterilized using a 250 ml vacuum driven disposable 0.45 um filtration system.
C. albicans was sub-cultured from a −80° C. stock onto Sabouraud dextrose agar and incubated for 24-48 hrs at 37° C. The fungi inoculum was prepared by picking five colonies of ˜1 mm in diameter from 24-48 hr old cultures. The colonies were then suspended in 5 ml of sterile normal saline (8.5 g/L NaCl; 0.85% saline) diluted 1:50 and further diluted 1:20 with medium to obtain two-fold inoculum (1-5×10^3 cfu/ml). […] The microtitre plates were then sealed in plastic bags and incubated at 35° C. for 24-48 hrs in an ambient air incubator with shaking at 250 RPM.
Inhibition of visible growth of C. albicans in the microtitre plate wells was assessed by the unaided eye and confirmed by OD600 reading. […] The MIC values of compounds with significant activity are also included.

[3] = tested on: MRSA 1B-387; assay: In vivo anti-bacterial activity, ICR mice inoculated I.P. with MRSA, oral treatment; conditions: Staphylococcus aureus
Protocol: For in vivo studies, groups of 5-10 female ICR mice (6-7 weeks) were inoculated intraperitonially with 3-8×10^7 CFU MRSA 1B-387 per mouse in 400 μl of 5% mucin. The test compounds at concentrations of 50 or 100 mg/kg were administered orally immediately after the bacterial inoculation and again 3 hours later. The selected dosages were administered twice daily throughout the experiment. The efficacy of the treatment was evaluated by comparison of mortality between the experimental and control groups (Table 5).

[4] = 24 h, read-out: Inhibition (%) after 24 h
[5] = 48 h, read-out: Inhibition (%) after 48 h

Compound | MIC [1] [µg/mL] | other results
CC(=O)n1c(-c2c(C)n(C(C)=O)c3ccccc23)nc(-c2ccccc2)c1-c1ccccc1 [Compound 5] | > 128 | inhibition at 25 µg/mL [2, 4]: 0%; inhibition at 25 µg/mL [2, 5]: 0%; responders at 100 mg/kg [3]: 20%; responders at 100 mg/kg ([3]; read-out: Survival %): 20%
Brc1ccc2[nH]cc(-c3nc(-c4ccccc4)c(-c4ccccc4)[nH]3)c2c1 [Compound 6] | 4 (≈ 9.65 µM) | inhibition at 25 µg/mL [2, 4]: 0%; inhibition at 25 µg/mL [2, 5]: 0%; responders at 100 mg/kg [3]: 40%; responders at 100 mg/kg ([3]; read-out: Survival %): 40%
Cc1[nH]c2ccccc2c1-c1nc(-c2ccc(F)cc2)c(-c2ccc(F)cc2)[nH]1 [Compound 7] | 4 to 16 (≈ 10.4 to 41.5 µM) | 
Fc1ccc(-c2nc(-c3c[nH]c4ccc(Br)cc34)[nH]c2-c2ccc(F)cc2)cc1 [Compound 8] | 2 (≈ 4.44 µM) | MIC ([2]; ATCC24433, C. albicans ATCC 24433): 8 µg/mL (≈ 17.8 µM); inhibition at 25 µg/mL [2, 4]: 100%; inhibition at 25 µg/mL [2, 5]: 100%; responders at 100 mg/kg [3]: 20%; responders at 100 mg/kg ([3]; read-out: Survival %): 20%
COc1ccc(-c2nc(-c3c[nH]c4ccc(Br)cc34)[nH]c2-c2ccc(OC)cc2)cc1 [Compound 10] | 4 (≈ 8.43 µM) | inhibition at 25 µg/mL [2, 4]: 0%; inhibition at 25 µg/mL [2, 5]: 0%; responders at 100 mg/kg [3]: 100%; responders at 100 mg/kg ([3]; read-out: Survival %): 100%
Cc1[nH]c2ccccc2c1-c1nc(-c2ccccn2)c(-c2ccccn2)[nH]1 [Compound 15] | > 128 | 
COc1ccccc1-c1nc(-c2c(C)[nH]c3ccccc23)[nH]c1-c1ccccc1OC [Compound 17] | 16 (≈ 39.1 µM) | 
Cc1ccc(-c2nc(-c3c(C)[nH]c4ccccc34)[nH]c2-c2ccc(C)cc2)cc1 [Compound 23] | 4 to 8 (≈ 10.6 to 21.2 µM) | 
Cc1[nH]c2ccccc2c1-c1nc(-c2cccs2)c(-c2cccs2)[nH]1 [Compound 25] | 32 to 64 (≈ 88.5 to 177 µM) | 
Cc1[nH]c2ccccc2c1-c1nc(-c2ccncc2)c(-c2ccc(F)cc2)[nH]1 [Compound 27] | 32 to 64 (≈ 86.9 to 174 µM) | 
Cc1[nH]c2ccccc2c1-c1nc(-c2ccc(Oc3ccccc3)cc2)c(-c2ccc(Oc3ccccc3)cc2)[nH]1 [Compound 38] | > 128 | 
Cc1[nH]c2ccccc2c1-c1nc(-c2ccc(-c3ccccc3)cc2)c(-c2ccc(-c3ccccc3)cc2)[nH]1 [Compound 40] | > 128 | 
Cn1cc(-c2nc3c4ccccc4c4ccccc4c3[nH]2)c2ccccc21 [Compound 47] | > 128 | 
Brc1ccc2[nH]cc(-c3nc4c5cc(I)ccc5c5ccc(I)cc5c4[nH]3)c2c1 [Compound 52] | > 64 | 
Ic1ccc2c3ccccc3c3[nH]c(-c4c[nH]c5ccccc45)nc3c2c1 [Compound 53] | 1 (≈ 2.18 µM) | 
Oc1ccc(-c2nc(-c3ccc(Br)cc3)c(-c3ccccc3)[nH]2)cc1 [Compound 58] | 4 (≈ 10.2 µM) | 

Compound | MIC [1] [µg/mL] | other results
O=C(O)c1ccc(-c2nc(-c3ccc(Br)cc3)c(-c3ccccc3)[nH]2)cc1 [Compound 59] | 32 (≈ 76.3 µM) | 
O=C(O)c1ccc(-c2nc(-c3ccccc3)c(-c3cccc4ccccc34)[nH]2)cc1 [Compound 60] | 64 (≈ 164 µM) | 
Oc1cccc(-c2nc(-c3ccccc3)c(-c3cccc4ccccc34)[nH]2)c1 [Compound 61] | 8 (≈ 22.1 µM) | 
Oc1cccc(-c2nc(-c3ccc(-c4ccccc4)cc3)c(-c3ccccc3)[nH]2)c1 [Compound 62] | 2 (≈ 5.15 µM) | 
Oc1ccc(-c2nc(-c3ccc(-c4ccccc4)cc3)c(-c3ccccc3)[nH]2)cc1 [Compound 63] | 2 (≈ 5.15 µM) | 
Cc1ccc(-c2nc(-c3cccc(O)c3)[nH]c2-c2ccccc2Br)cc1 [Compound 64] | 4 (≈ 9.87 µM) | 
O=C(O)c1ccc(-c2nc(-c3ccc(Br)cc3)c(-c3ccc(Br)cc3)[nH]2)cc1 [Compound 65] | 16 (≈ 32.1 µM) | 
COc1cc(-c2nc(-c3ccc(Cl)cc3)c(-c3ccc(Cl)cc3)[nH]2)cc(OC)c1O [Compound 66] | 2 (≈ 4.53 µM) | 
Cc1ccc([N+](=O)[O-])cc1-c1[nH]c(-c2cccc(O)c2)nc1-c1ccccc1 [Compound 67] | 16 (≈ 43.1 µM) | 
Oc1ccc(-c2nc(-c3cccc(Cl)c3Cl)c(-c3ccccc3)[nH]2)cc1O [Compound 69] | 16 (≈ 40.3 µM) | 
COc1ccc(-c2nc(-c3cccc(Cl)c3Cl)c(-c3ccccc3)[nH]2)cc1O [Compound 70] | 8 (≈ 19.5 µM) | 
Cc1ccc(C)c(-c2nc(-c3cccc(O)c3)[nH]c2-c2ccccc2)c1 [Compound 71] | 8 (≈ 23.5 µM) | 
O=C(O)c1ccc(-c2nc(-c3ccc4c(c3)-c3cc(-c5[nH]c(-c6ccc(C(=O)O)cc6)nc5-c5ccccc5)ccc3C4=O)c(-c3ccccc3)[nH]2)cc1 [Compound 72] | 0.5 to 2 (≈ 0.709 to 2.84 µM) | 
Fc1ccc(-c2nc(-c3ccc4[nH]ccc4c3)[nH]c2-c2ccccc2)cc1 [Compound 76] | > 128 | 
Cc1[nH]c2ccc([N+](=O)[O-])cc2c1-c1nc(-c2ccc(F)cc2)c(-c2ccccc2)[nH]1 [Compound 77] | > 128 | 

More lines, main results first:

MIC [1] [µg/mL] | Compound | other results
8 (≈ 19.5 µM) | COc1ccc(-c2nc(-c3c(C)[nH]c4ccccc34)[nH]c2-c2ccc(OC)cc2)cc1 [Compound 9] | 
2 to 4 (≈ 4.14 to 8.28 µM) | Clc1ccc(-c2nc(-c3c[nH]c4ccc(Br)cc34)[nH]c2-c2ccc(Cl)cc2)cc1 [Compound 20] | 
8 to 16 (≈ 19.1 to 38.2 µM) | Cc1[nH]c2ccccc2c1-c1nc(-c2cccc(Cl)c2)c(-c2cccc(Cl)c2)[nH]1 [Compound 21] | 
2 (≈ 4.69 µM) | Brc1ccc2[nH]cc(-c3nc(-c4cccs4)c(-c4cccs4)[nH]3)c2c1 [Compound 26] | 
2 (≈ 4.62 µM) | Fc1ccc(-c2[nH]c(-c3c[nH]c4ccc(Br)cc34)nc2-c2ccncc2)cc1 [Compound 28] | 
> 128 | Fc1ccc(-c2[nH]c(-c3c[nH]c4ccccc34)nc2-c2ccccc2)cc1 [Compound 37] | 
> 128 | Brc1ccc2[nH]cc(-c3nc(-c4ccc(Oc5ccccc5)cc4)c(-c4ccc(Oc5ccccc5)cc4)[nH]3)c2c1 [Compound 39] | 
4 to 8 (≈ 8.16 to 16.3 µM) | Brc1ccc2[nH]cc(-c3nc(-c4ccccc4)c(-c4ccc(-c5ccccc5)cc4)[nH]3)c2c1 [Compound 48] | 
4 (≈ 9.72 µM) | c1ccc(-c2ccc(-c3[nH]c(-c4c[nH]c5ccccc45)nc3-c3ccccc3)cc2)cc1 [Compound 49] | 
> 64 | Brc1ccc2[nH]cc(-c3nc(-c4ccccc4)c(-c4ccc(N5CCCCC5)cc4)[nH]3)c2c1 [Compound 50] | 
16 (≈ 30.5 µM) | Clc1ccc(-c2nc(-c3c[nH]c4ccc(Br)cc34)[nH]c2-c2ccc(-c3ccccc3)cc2)cc1 [Compound 51] | 
2 to 4 (≈ 5.19 to 10.4 µM) | c1ccc(-c2[nH]c(-c3c[nH]c4ccccc34)nc2-c2cccc3ccccc23)cc1 [Compound 54] | 
2 (≈ 5.19 µM) | c1ccc(-c2[nH]c(-c3c[nH]c4ccccc34)nc2-c2ccc3ccccc3c2)cc1 [Compound 55] | 
1 (≈ 1.7 µM) | Ic1cccc(-c2nc(-c3c[nH]c4ccccc34)[nH]c2-c2cccc(I)c2)c1 [Compound 56] | 
16 (≈ 43 µM) | COc1ccc(-c2nc(-c3ccc(O)cc3)[nH]c2-c2ccc(OC)cc2)cc1 [Compound 57] | 
> 128 | COc1ccc(-c2nc(-c3ccccc3)c(-c3ccccc3)[nH]2)c(OC)c1 [Compound 73] | 
> 128 | COc1ccc(-c2nc(-c3ccc(F)cc3)c(-c3ccccc3)[nH]2)c(OC)c1 [Compound 74] | 
32 (≈ 83.7 µM) | Cc1[nH]c2ccc(N)cc2c1-c1nc(-c2ccc(F)cc2)c(-c2ccccc2)[nH]1 [Compound 75] | 
2 (≈ 4.22 µM) | COc1cccc(-c2nc(-c3c[nH]c4ccc(Br)cc34)[nH]c2-c2cccc(OC)c2)c1 [Compound 84] | 

Reference: patent US7884120B2, “2,4,5-trisubstituted imidazoles and their use as anti-microbial agents” (Lorus Therapeutics Inc., priority 2002, dated 2011)
